Consider five substances from ChEMBL document CHEMBL1126184, “Synthesis and in vitro evaluation of boronated uridine and glucose derivatives for boron neutron capture therapy” (1992).

Experiment [1] concerns Glioma. Particulars: Rattus norvegicus.
Description: Compound's ability to selectively deliver the requisite amounts of boron to tumors(amount of boron present in media in rat F98 Glioma cells at 0h after incubation with the compound.)
Experiment [2] concerns Glioma. Particulars: Rattus norvegicus. This is another data set of the same source.
Description: Compound's ability to selectively deliver the requisite amounts of boron to tumors (cellular uptake of boron by the rat F98 Glioma cells at 16h was determined.)

On to “1-[4-(1,2,3,4,5,6,7,8,9,10decabora-Cyclododec-11-en-11-ylmethoxy)-3-hydroxy-5-hydroxymethyl-tetrahydro-furan-2-yl]-1H-pyrimidine-2,4-dione”, for which the Boron in media at 0h in experiment [1] was 6.75 µg of B/ml. For the same substance, in experiment [2], the Cellular uptake of boron at 16h (ug of B (g of cells)-1) came to 96.2.
Take “1-[4-Hydroxy-5-hydroxymethyl-3-(1,2,3,4,5,6,7,8,9nonabora-cycloundec-10-en-10-ylmethoxy)-tetrahydro-furan-2-yl]-1H-pyrimidine-2,4-dione”: in experiment [1], the Boron in media at 0h is 6.75 µg of B/ml. Besides, in experiment [2], the Cellular uptake of boron at 16h (ug of B (g of cells)-1) amounted to 1.5.
As to “1-[3-(1,2,3,4,5,6,7,8,9,10decabora-Cyclododec-11-en-11-ylmethoxy)-4-hydroxy-5-hydroxymethyl-tetrahydro-furan-2-yl]-1H-pyrimidine-2,4-dione”, in experiment [1], the Boron in media at 0h is 6.75 µg of B/ml. In experiment [2], this substance showed a Cellular uptake of boron at 16h (ug of B (g of cells)-1) of 104.
With “4-(1,2,3,4,5,6,7,8,9,10decabora-Cyclododec-11-en-11-ylmethoxy)-6-hydroxymethyl-tetrahydro-pyran-2,3,5-triol”, the Boron in media at 0h in experiment [1] was 6.75 µg of B/ml. The Cellular uptake of boron at 16h (ug of B (g of cells)-1) in experiment [2] turned out to be 65.2.
For the substance “1-[5-(1,2,3,4,5,6,7,8,9,10decabora-Cyclododec-11-en-11-ylmethoxymethyl)-3,4-dihydroxy-tetrahydro-furan-2-yl]-1H-pyrimidine-2,4-dione”, in experiment [1], the Boron in media at 0h was 6.75 µg of B/ml. For the same substance, the Cellular uptake of boron at 16h (ug of B (g of cells)-1) in experiment [2] is 83.8.
